According to US20240366625A1, “COMPOSITIONS CONTAINING AND THERAPIES USING BEMPEDOIC ACID AND TOLVAPTAN” (Esperion Therapeutics, Inc., priority 2021, published 2024):

Tests used:
[1] = test system: early onset, rapidly developing ADPKD mouse model Pkd1fl/fl;Pax8-rtTA;Tet-O-Cre; experiment: Early onset, rapidly developing ADPKD mouse model: kidney size, kidney weight to body weight, BUN; assay type: in vivo; settings: for BUN: vehicle 107±14; for kidney size (H&E stains of kidney sections) compared to vehicle control: oral gavage daily P12-P21, P22
Protocol: The example describes characterization of the early onset, rapidly developing ADPKD mouse model Pkd1fl/fl;Pax8-rtTA;Tet-O-Cre homozygous in the C57BL/6 background.
(§1) Doxycycline was administered intraperitoneally (50 mg/kg/day) on postnatal days 10 and 11 (P10 and P11) to induce Pkd1 deletion and rapidly progressive PKD in the Cre+ mice. Mice were treated with the various drugs and combinations or vehicle by oral gavage daily from P12-P21 and were then sacrificed at P22 of age to harvest kidneys for histology, weight measurements and blood urea nitrogen (BUN) measurements. Treatments were vehicle, tolvaptan 30 mg/kg/d, tolvaptan 100 mg/kg/d, bempedoic acid 30 mg/kg/d, tolvaptan 30 mg/kg/d+bempedoic acid 30 mg/kg/d, and tolvaptan 100 mg/kg/d+bempedoic acid 30 mg/kg/d; also included was an uninduced, untreated group without PKD. Each treatment group consisted of 3-6 mice.

phosphorylated P70S6K = experiment: Immunoblot of kidney lysates, early onset ADPKD mice: pP70S6K (mTOR pathway); assay type: in vivo, mouse; settings: bempedoic acid 30 mg/kg/d alone or in combination with tolvaptan; P22
Protocol: as §1
(§2) At the end of the study, kidney sample lysates were prepared in buffer and separated using SDS-PAGE. Separated proteins were then electrophoretically transferred to membranes. Nonspecific binding was blocked, and membranes were probed with antibodies against phosphorylated (Thr172)-AMPK, phosphorylated P70S6K, phosphorylated ERK, phosphorylated ACLY, total KIM-1, and total neutrophil gelatinase-associated lipocalin (NGAL). Membranes were incubated with appropriate detection antibodies and relative signal intensity determined. Protein levels were normalized to total protein levels. […] These effects of bempedoic acid occurred both alone and in combination with tolvaptan therapy.

pThr172AMPKα = experiment: Immunoblot of liver lysates, early onset ADPKD mice: pAMPK; assay type: in vivo, mouse; settings: bempedoic acid 30 mg/kg/d; P22
Protocol: as §1
(§3) Liver sample lysates were prepared in buffer and separated using SDS-PAGE. Separated proteins were then electrophoretically transferred to membranes. Nonspecific binding was blocked and membranes were probed with antibodies against pACLY, pThr172AMPKα, PGC1alpha, FATP2, pACC, and cleaved Cas3. Membranes were incubated with appropriate detection antibodies and relative signal intensity determined. Target protein levels were normalized to total protein levels.

[2] = test system: inner medullary collecting duct (IMCD)-derived Pkd1−/− kidney epithelial cells; experiment: Cyst growth of IMCD-derived Pkd1−/− kidney epithelial cells in 3D cultures (Matrigel); assay type: cell-based, mouse; settings: 10 μM forskolin+100 μM IBMX
Protocol: ETC-1002 inhibited cyst growth of inner medullary collecting duct (IMCD)-derived Pkd1−/− kidney epithelial cells in 3D cultures. Cells were grown in Matrigel for 6 days and treated with 10 μM forskolin+100 μM IBMX±500 μM metformin and/or 100 μM of ETC-1002 (bempedoic acid) for the last 3 days alone or in combination as shown (FIG. 2C). […] Error bars indicate 95% CI (*P<0.05, **P<0.01, ***P<0.001 for the indicated comparisons by one-way ANOVA and Tukey's multiple comparison test) (FIG. 2D).

[3] = test system: total neutrophil gelatinase-associated lipocalin (NGAL); experiment: Immunoblot of kidney lysates, early onset ADPKD mice: NGAL; assay type: in vivo, mouse; settings: P22
Protocol: as §1, §2

[4] = test system: proximal tubule (PT)-derived Pkd1−/− kidney epithelial cells; experiment: Cyst growth of PT-derived Pkd1−/− kidney epithelial cells in 3D cultures (Matrigel); assay type: cell-based, mouse; settings: 10 μM forskolin+100 μM IBMX, vs vehicle (DMSO)
Protocol: The example describes cell growth inhibition studies in 3D cultures of kidney epithelial cells using either of ACLY inhibitors bempedoic acid or SB-204990. […] Cells were grown in Matrigel 12 days and treated with 10 μM forskolin+100 μM IBMX for 11 days, and then treated with either vehicle (DMSO; CON), 500 μM metformin, 100 μM ETC-1002 (bempedoic acid) or 30 μM SB-204990 either alone or in combination as shown for the last 3 days (FIG. 2A). […] Error bars indicate 95% confidence interval (CI) (*P<0.05, **P<0.01, ***P<0.001 for the indicated comparisons by one-way ANOVA and Tukey's multiple comparison test) (FIG. 2B).

pACC = experiment: Immunoblot of liver lysates, early onset ADPKD mice: pACC; assay type: in vivo, mouse; settings: bempedoic acid 30 mg/kg/d; P22
Protocol: as §1, §3

phosphorylated ACLY = experiment: Immunoblot of kidney lysates, early onset ADPKD mice: pACLY; assay type: in vivo, mouse; settings: bempedoic acid 30 mg/kg/d alone or in combination with tolvaptan; P22
Protocol: as §1, §2

phosphorylated ERK = experiment: Immunoblot of kidney lysates, early onset ADPKD mice: pERK; assay type: in vivo, mouse; settings: bempedoic acid 30 mg/kg/d alone or in combination with tolvaptan; P22
Protocol: as §1, §2

total KIM-1 = experiment: Immunoblot of kidney lysates, early onset ADPKD mice: KIM-1; assay type: in vivo, mouse; settings: bempedoic acid 30 mg/kg/d; P22
Protocol: as §1, §2

[5] = test system: phosphorylated (Thr172)-AMPK; experiment: Immunoblot of kidney lysates, early onset ADPKD mice: pAMPK; assay type: in vivo, mouse; settings: bempedoic acid 30 mg/kg/d alone or in combination with tolvaptan; P22
Protocol: as §1, §2

pACLY = experiment: Immunoblot of liver lysates, early onset ADPKD mice: pACLY; assay type: in vivo, mouse; settings: bempedoic acid 30 mg/kg/d alone or in combination with tolvaptan 100 mg/kg/d; P22
Protocol: as §1, §3

[6] = test system: late onset, slowly developing ADPKD mouse model Pkd1fl/fl;Pax8-rtTA;Tet-On-Cre; experiment: Late onset, slowly developing ADPKD mouse model: kidney weight to body weight; assay type: in vivo; settings: bempedoic acid 30 mg/kg/d mixed with food from P30
Protocol: The example describes characterization of the late onset, slowly developing ADPKD mouse model Pkd1fl/fl;Pax8-rtTA;Tet-On-Cre when treated with bempedoic acid.
Doxycycline was administered intraperitoneally (50 mg/kg/day) on postnatal days 27-29 (P27-P29) and again on P43 and P57 to induce later Pkd1 knockout and slowly progressive PKD in the Cre+ mice. Mice were then sacrificed at […], P60, and P120 for measurements of total kidney weight to body weight ratios.

FATP2 = experiment: Immunoblot of liver lysates, early onset ADPKD mice: FATP2; assay type: in vivo, mouse; settings: bempedoic acid 30 mg/kg/d alone or in combination with tolvaptan 100 mg/kg/d; P22
Protocol: as §1, §3

Compound: CC(C)(CCCCCC(O)CCCCCC(C)(C)C(=O)O)C(=O)O [Bempedoic acid]
- total kidney weight to body weight ratio ([1]; bempedoic acid 30 mg/kg/d oral gavage P12-P21, P22, vehicle 11.9±1.2%): 6.9±0.4%
- BUN ([1]; bempedoic acid 30 mg/kg/d oral gavage P12-P21, P22): 59 ± 13 mg/dL
- kidney size (H&E stains of kidney sections) compared to vehicle control [1]: marked reduction in kidney size
- mTOR signaling pathway (pP70S6K relative to total protein), kidney lysate (phosphorylated P70S6K): inhibited
- AMPK activity (pThr172 relative to total protein), liver lysate (pThr172AMPKα): increased AMPK activity
- cyst area relative to control ([2]; 100 μM ETC-1002 alone for the last 3 days): significantly reduced cyst area
- NGAL signaling pathway (NGAL relative to total protein), kidney lysate ([3]; bempedoic acid 30 mg/kg/d alone or in combination with tolvaptan): inhibited
- reduction of NGAL expression compared with reduction of KIM-1 expression, kidney lysate ([3]; bempedoic acid 30 mg/kg/d): to a lesser extent
- cyst area relative to control ([4]; 100 μM ETC-1002 for the last 3 days): significantly reduced cyst area
- phosphorylation of AMPK target ACC in liver tissue (pACC): promoted phosphorylation
- ACLY activity (pACLY relative to total protein), kidney lysate (phosphorylated ACLY): reduced ACLY
- ERK signaling pathway (pERK relative to total protein), kidney lysate (phosphorylated ERK): inhibited
- reduction of KIM-1 expression (marker of kidney injury), kidney lysate (total KIM-1): > 70%
- AMPK activity (pThr172 relative to total protein), kidney lysate [5]: stimulated AMPK
- pACLY (activation marker) relative to total protein, liver lysate (pACLY): inhibited pACLY
- total kidney weight to body weight ratio ([6]; P60, male mice): significantly reduced total kidney weight to body weight ratio
- total kidney weight to body weight ratio ([6]; P120, male and female mice): a trend that was also observed
- FATP2 expression relative to total protein, liver lysate (FATP2): increased FATP2 expression

Compound: O=C(O)C[C@@]1(O)C[C@@H](CCCCCCc2ccc(Cl)cc2Cl)OC1=O [SB-204990]
- cyst area relative to control ([4]; 30 μM SB-204990 for the last 3 days): significantly reduced cyst area

Compound: CN(C)C(=N)N=C(N)N [metformin]
- cyst area relative to control ([2]; 500 μM metformin alone for the last 3 days): significantly reduced cyst area
- cyst area relative to control ([4]; 500 μM metformin for the last 3 days): significantly reduced cyst area

Compound: Cc1ccccc1C(=O)Nc1ccc(C(=O)N2CCCC(O)c3cc(Cl)ccc32)c(C)c1 (centres unmarked) [tolvaptan, Tolvaptan]
- kidney size (H&E stains of kidney sections) compared to vehicle control [1]: marked reduction in kidney size
- BUN ([1]; tolvaptan 30 mg/kg/d oral gavage P12-P21, P22): 68 ± 8 mg/dL
- total kidney weight to body weight ratio ([1]; tolvaptan 30 mg/kg/d oral gavage P12-P21, P22, vs vehicle): reduced total kidney weight to body weight ratio
- total kidney weight to body weight ratio ([1]; tolvaptan 100 mg/kg/d oral gavage P12-P21, P22, vehicle 11.9±1.2%): 7.8±1.0%
- BUN ([1]; tolvaptan 100 mg/kg/d oral gavage P12-P21, P22): 35 ± 7 mg/dL
